Data taken from US20070142462A1, “Method of Treating Cancer” (The University of Utah, priority 2000, published 2007).

Key:
Assay type in all cases: cell-based, human
[1] = tested on: M1619 melanoma cells; experiment: MTT proliferation assay, M1619 melanoma; details: for Proliferation of M1619 melanoma cells (MTT, A540): 10% FBS, agents added at plating, 48 hours (ebselen 72 hours)
Protocol: Measurement of Proliferation in Cell Cultures. Proliferation of cultured cells was quantitated using a previously reported calorimetric method based upon metabolic reduction of the soluble yellow tetrazolium dye 3-[4,5-dimethylthiazol]-2yl-2,5-diphenyl tetrazolium bromide (MTT) to its insoluble purple formazan by the action of mitochondrial succinyl dehydrogenase. […] This assay empirically distinguishes between dead and living cells. For proliferation studies, cells were seeded into 24-well uncoated plastic plates (Costar) at 15,000-50,000 cells per well and cultured with respective media and mitogens. After 24-96 hours, medium was removed, cells were washed twice with 1 ml of sterile Dulbecco's modified phosphate buffered saline without Ca^2+ or Mg^2+ (DPBS), the medium was replaced with 1 ml/well fresh medium containing 100 μg/ml MTT, and plates were incubated an additional hour. MTT-containing medium was removed, 0.5 ml dimethylsulfoxide (DMSO) was added to each well, and the absorbance of the solubilized purple formazan dye was measured at 540 nm. A total of 4-6 wells was studied at each treatment condition. Preliminary studies were performed with 50-200 μg/ml MTT incubated for 15 min to 3 hours to determine the optimum concentration and incubation time at which the rate of conversion was linear and proportional to the number of cells present.
(§1) Cell Culture Treatments. The effect of antioxidant treatments on proliferation of malignant cell lines was studied in cultures stimulated with 10% FBS. Cell numbers were quantitated by the MTT assay 24-72 hours later. In some experiments, antioxidants were added immediately after cells were plated. In other experiments, cells were plated and allowed to grow for 24 hours before fresh media with antioxidants was added, and cell numbers were studied by the MTT assay 48 hours later.
A. M1619 melanoma cells stimulated with 10% fetal bovine serum (FBS) were plated at a density of 50,000 cells per well and antioxidants were added to wells at the indicated concentrations (mM or U/ml). After 48 hours, proliferation was quantitated by assessing the cell number-dependent reduction of the soluble yellow tetrazolium dye 3-[4,5-dimethylthiazol]-2yl-2,5-diphenyl tetrazolium bromide (MTT) to its insoluble formazan, measured as the absorbance at 540 nm (A540). The antioxidants tested included no antioxidant (control, i.e., FBS alone), 1000 U/ml SOD, 20 mM NAC, 500 U/ml, 1000 U/ml, and 3000 U/ml of catalase, and boiled […] catalase.
B. In a separate experiment, 2 μl/well of DMSO (served as control), 5 μM, 10 μM, and 25 μM Ebselen were tested on M1619 melanoma cells as described above, except that the cells were cultured for 72 hours before proliferation was measured.
C. 3000 U/ml Catalase, 2 μl/well DMSO, 25 μM Ebselen, and 50 μM Ebselen were tested as described above except that the compounds were added 24 hours after M1619 cells were plated. After the addition of antioxidants, the cells were incubated for an additional 48 hours and cell proliferation was quantitated. […]

[2] = tested on: M1619 cells; experiment: Ferricytochrome c reduction (O2− generation) by M1619 cells; details: 160 μM ferricytochrome c; capsaicin 100 μM; dicumarol 250 μM pre-treatment 60 min; other inhibitors as
Protocol: Measurement of Reactive Oxygen Species. Superoxide (O2^−) generation was measured by the technique of superoxide dismutase (SOD) inhibitable reduction of ferricytochrome c, employing a modification allowing absorbance reading with an automatic enzyme immunoassay reader. See Friovich, I. in Handbook of Methods for Oxygen Radical Research (Greenwald, R. A., ed.), pp 121-122, CRC Press, Boca Raton, Fla., 1985; Pick, E. et al. J. Immunol. Methods 46:211-226 (1981). Confluent cells grown on 24-well plates were washed with DPBS, and incubated in 5% CO2/air at 37° C. with 160 μM ferricytochrome c in total volume of 550 μl of sodium bicarbonate-containing Krebs-Heinseleit buffer, or Hanks Balanced Salt Solution (HBSS), with and without copper-zinc SOD (1,000 units/ml). See Nozik-Grayck, et al., Am J. Physiol. 273 (17):L296-L304 (1997). The absorbance of each well was measured at 550 nm initially and 3-24 hours later using an ELx800 UV automated microplate reader (Biotek Instruments, Highland Park, Vt.). Monolayers were then washed with DPBS, and cell protein was measured using the BCA protein assay (Pierce). O2^− generation, normalized to cell protein, was computed from the Beer-Lambert relationship, as the quotient of SOD-inhibitable increase absorbance over time divided by the difference between the molar extinction coefficients for ferricytochrome c and ferrocytochrome c (ΔEM=2.1×10^4 M^−1 cm^−1). See Bashford, in Spectrophotometry & Spectrofluorimetry. A Practical Approach (Harris, D. A., and Bashford, C. L., eds) pp. 1-22, IRL Press, Washington, D.C., 1987; Friovich, I. in Handbook of Methods for Oxygen Radical Research (Greenwald, R. A., ed) pp 121-122, CRC Press, Boca Raton, Fla., 1985. […].
A. Capsaicin inhibits ferricytochrome c reduction. M1619 cells grown on 24-well plates were washed with DPBS, and incubated in 5% CO2/air at 37° C. with 160 μM ferricytochrome c in total volume of 550 μl of HBSS with or without the quinone analog capsaicin (100 μM final concentration) added in 5 μl/ml of ethanol. The absorbance of each well was measured at 550 nm initially and 3 hours later using an ELx800 UV automated microplate reader (Biotek Instruments, Highland Park, Vt.). The results are illustrated in FIG. 8A.
. […]. The results are illustrated in FIG. 9A.

[3] = tested on: p65 component of NF-κB; experiment: Immunohistochemical localization of p65 in M1619 cells; details: 24 hours, catalase 3,000 U/ml, apocynin 150 μg/ml, dicumarol 250 μM
Protocol: The effect of antioxidants on nuclear activation of NF-κB was studied by incubating near confluent (70%) cell cultures with antioxidant treatments for 1-48 hours. Nuclear protein was harvested, and EMSAs were performed using DNA consensus binding sequences, or nuclear translocation of the p65 component of NF-κB was studied by immunoperoxidase staining, as outlined below.
Immunohistochemical Localization of NF-κB. Cells grown on sterile coverslips and treated with catalase 3,000 U/ml, apocynin 150 μg/ml, or DPBS or DMSO vehicles for 24 h were fixed for 20 min on ice with 4% paraformaldehyde in DPBS with protease inhibitors, PI [Sigma protease inhibitor cocktail, 10 μl/ml, containing 4-(2-aminoethyl)benzensulfonyl fluoride (AEBSF), pepstatin A, trans-epoxysuccinyl-L-leucylamindo-(guanidino)butane (E-64), bestatin, leupeptin and aprotinin]. Cells were permeabilized by treating for 2 min with 0.1% NP-40 in DPBS/PI, washed once with cold DPBS and fixed as before for 10 min. Coverslips were incubated in 3% hydrogen peroxide for 30 min to suppress any remaining peroxidase, and washed three times in cold DPBS. The permeabilized and fixed cells were blocked for 2 hours with 2% BSA in DPBS on ice and incubated overnight at 4° C. with 1 μg/ml of anti-p65 antibody (Santa Cruz) diluted in 0.1% BSA/DPBS. Unbound anti-p65 was washed away with 2% BSA/DPBS and bound antibody was stained by incubation with biotinylated goat anti-rabbit immunoglobulin diluted 1:50 in 0.1% BSA/DPBS for 45 min on ice. Excess secondary antibody was washed away by 3 washes with 2% BSA/DPBS on ice. After washing, the cells were incubated with a streptavidin-biotin-peroxidase complex at room temperature for 1 hr, washed again, and incubated in 0.03% wt/vol 3-3′diaminobenzidine with 0.003% vol/vol hydrogen peroxide until a brown reaction product could be seen. Cells were then counterstained with eosin and mounted on glass slides before viewing under light microscopy. […]

[4] = tested on: breast carcinoma MDA-MB-453 cells; experiment: MTT proliferation assay, MDA-MB-453 breast carcinoma; details: Homo sapiens, MDA-MB-453; Ebselen 25 μM; 10% FBS; 72 hours; mean±SE vs FBS+DMSO control; read-out: Percent Growth Inhibition
Protocol: (§2) Measurement of Proliferation in Cell Cultures. […] This assay empirically distinguishes between dead and living cells.
as §1
(§3) Cells stimulated with 10% FBS were plated at a density of 50,000 cells per well. DMSO and antioxidants were added to cell wells at the indicated concentrations. […] Each value represents a mean of at least 4 experiments.

[5] = tested on: Adeno-squamous lung carcinoma NCI-H596 cells; experiment: MTT proliferation assay, NCI-H596 lung carcinoma; details: Homo sapiens, NCI-H596; Ebselen 25 μM; 10% FBS; 48 hours; mean±SE vs FBS+DMSO control; read-out: Percent Growth Inhibition
Protocol: as §2, §1, §3

[6] = tested on: Melanoma M1585 cells; experiment: MTT proliferation assay, M1585 melanoma; details: Homo sapiens; Ebselen 25 μM; 10% FBS; 48 hours; mean±SE vs FBS+DMSO control; read-out: Percent Growth Inhibition
Protocol: as §2, §1, §3

[7] = tested on: LNCaP.FGC prostate adenocarcinoma cells; experiment: MTT proliferation assay, LNCaP.FGC prostate adenocarcinoma; details: Homo sapiens; Ebselen 25 μM; 10% FBS; 48 hours; mean±SE vs FBS+DMSO control; read-out: Percent Growth Inhibition
Protocol: as §2, §1, §3

[8] = tested on: NF-κB; experiment: EMSA of constitutive nuclear NF-κB DNA binding, M1619; details: 24 hours, catalase 3,000 U/ml, NAC 20 mM, Ebselen 25 μM, dicumarol 250 μM
From the text: Electrophoretic Mobility Shift Assays (EMSAs). […] J. Respir.

Row | Structure (SMILES) | Proliferation of M1619 melanoma cells (MTT, A540) [1] | ferricytochrome c reduction by M1619 cells [2] | other results
1 | COc1ccc2c(c1)c(CC(=O)O)c(C)n2C(=O)c1ccc(Cl)cc1 [indomethacin] | Neither cellular reduction of ferricytochrome c nor proliferation were reduced | Neither cellular reduction of ferricytochrome c nor proliferation were reduced | –
2 | COc1cc(CNC(=O)CCCC/C=C/C(C)C)ccc1O [capsaicin, 8-methyl-N-vanillyl-6-noneamide] | significantly reduced proliferation | significantly decreased | –
3 | N=C(NCCC[C@H](N)C(=O)O)N[N+](=O)[O-] [ω-nitro-L-arginine, Nω-nitro-L-arginine] | Neither cellular reduction of ferricytochrome c nor proliferation were reduced | Neither cellular reduction of ferricytochrome c nor proliferation were reduced | –
4 | Oc1ncnc2[nH]ncc12 [allopurinol] | Neither cellular reduction of ferricytochrome c nor proliferation were reduced | Neither cellular reduction of ferricytochrome c nor proliferation were reduced | –
5 | COc1cc(C(C)=O)ccc1O [apocynin, 4′-hydroxy-3′-methoxy-acetophenone] | significantly reduced proliferation | – | anti-p65 staining in nuclei (nuclear translocation of NF-κB) [3]: little staining in nuclei
6 | O=c1c2ccccc2[se]n1-c1ccccc1 [Ebselen, 2-phenyl-1,2-benzisoselenazol-3(2H)-one] | dramatically reduced | – | inhibition at 25 µM [4]: 69 ± 4%; inhibition at 25 µM [5]: 57 ± 2%; inhibition at 25 µM [6]: 94 ± 2%; inhibition at 25 µM [7]: 100%; constitutive NF-κB DNA binding activity in nuclear protein [8]: substantially reduced; Proliferation of M1619 melanoma cells, agents added 24 hours after plating ([1]; catalase 3000 U/ml, Ebselen 25 and 50 μM, further 48 hours): antiproliferative
7 | CN/C(=N/CCSCc1nc[nH]c1C)NC#N [cimetidine] | Neither cellular reduction of ferricytochrome c nor proliferation were reduced | Neither cellular reduction of ferricytochrome c nor proliferation were reduced | –
8 | CC(=O)N[C@@H](CS)C(=O)O [N-acetylcysteine] | reduced proliferation | – | –
9 | C=C(C)[C@H]1Cc2c(ccc3c2O[C@@H]2COc4cc(OC)c(OC)cc4[C@@H]2C3=O)O1 [retenone] | Neither cellular reduction of ferricytochrome c nor proliferation were reduced | Neither cellular reduction of ferricytochrome c nor proliferation were reduced | –
10 | c1ccc2c(c1)[I+]c1ccccc1-2 [diphenylene iodonium chloride] | significantly reduced proliferation | – | –
